The target of the experiment is Integrin alpha-IIb/beta-3 (Homo sapiens, UniProt P08514+P05106). In words: Inhibition of human platelet aggregation mediated by alpha llb/beta3 interaction with fibrinogen.

Square brackets hold non-standard residues; d marks the D form. Peptide text beside a SMILES is read from it. NMeR = CN[C@@H](CCCNC(=N)N)C(=O)O; 3Amb = NCc1cccc(C(=O)O)c1; dAbu = CC[C@@H](N)C(=O)O Where only a bound is given, the exact number is not on record here.

As a reminder, the IC50 is the concentration needed to halve the response being measured.

Sequence of Integrin alpha-IIb/beta-3 (P05106 27-788 limits assumed): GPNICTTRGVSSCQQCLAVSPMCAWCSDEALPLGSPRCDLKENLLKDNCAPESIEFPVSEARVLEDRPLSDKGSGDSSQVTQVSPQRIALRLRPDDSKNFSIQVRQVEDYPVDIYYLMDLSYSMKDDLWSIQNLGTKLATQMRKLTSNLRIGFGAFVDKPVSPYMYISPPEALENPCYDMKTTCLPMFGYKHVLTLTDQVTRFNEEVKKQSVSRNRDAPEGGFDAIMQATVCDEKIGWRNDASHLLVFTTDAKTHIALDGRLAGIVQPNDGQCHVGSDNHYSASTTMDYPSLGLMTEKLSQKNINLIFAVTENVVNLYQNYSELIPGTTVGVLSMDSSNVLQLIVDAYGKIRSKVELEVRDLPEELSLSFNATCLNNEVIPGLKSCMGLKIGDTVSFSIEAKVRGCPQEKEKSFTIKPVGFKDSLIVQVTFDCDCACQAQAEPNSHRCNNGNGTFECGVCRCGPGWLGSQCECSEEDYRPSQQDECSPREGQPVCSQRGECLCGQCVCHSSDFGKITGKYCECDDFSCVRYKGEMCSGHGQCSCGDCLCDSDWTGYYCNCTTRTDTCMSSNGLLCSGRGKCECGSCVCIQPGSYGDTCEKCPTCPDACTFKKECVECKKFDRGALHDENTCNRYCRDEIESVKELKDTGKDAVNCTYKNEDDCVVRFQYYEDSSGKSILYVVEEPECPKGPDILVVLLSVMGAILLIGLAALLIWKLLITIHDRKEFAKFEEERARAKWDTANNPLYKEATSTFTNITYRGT
Sequence of Integrin alpha-IIb/beta-3 (P08514 32-887 limits assumed): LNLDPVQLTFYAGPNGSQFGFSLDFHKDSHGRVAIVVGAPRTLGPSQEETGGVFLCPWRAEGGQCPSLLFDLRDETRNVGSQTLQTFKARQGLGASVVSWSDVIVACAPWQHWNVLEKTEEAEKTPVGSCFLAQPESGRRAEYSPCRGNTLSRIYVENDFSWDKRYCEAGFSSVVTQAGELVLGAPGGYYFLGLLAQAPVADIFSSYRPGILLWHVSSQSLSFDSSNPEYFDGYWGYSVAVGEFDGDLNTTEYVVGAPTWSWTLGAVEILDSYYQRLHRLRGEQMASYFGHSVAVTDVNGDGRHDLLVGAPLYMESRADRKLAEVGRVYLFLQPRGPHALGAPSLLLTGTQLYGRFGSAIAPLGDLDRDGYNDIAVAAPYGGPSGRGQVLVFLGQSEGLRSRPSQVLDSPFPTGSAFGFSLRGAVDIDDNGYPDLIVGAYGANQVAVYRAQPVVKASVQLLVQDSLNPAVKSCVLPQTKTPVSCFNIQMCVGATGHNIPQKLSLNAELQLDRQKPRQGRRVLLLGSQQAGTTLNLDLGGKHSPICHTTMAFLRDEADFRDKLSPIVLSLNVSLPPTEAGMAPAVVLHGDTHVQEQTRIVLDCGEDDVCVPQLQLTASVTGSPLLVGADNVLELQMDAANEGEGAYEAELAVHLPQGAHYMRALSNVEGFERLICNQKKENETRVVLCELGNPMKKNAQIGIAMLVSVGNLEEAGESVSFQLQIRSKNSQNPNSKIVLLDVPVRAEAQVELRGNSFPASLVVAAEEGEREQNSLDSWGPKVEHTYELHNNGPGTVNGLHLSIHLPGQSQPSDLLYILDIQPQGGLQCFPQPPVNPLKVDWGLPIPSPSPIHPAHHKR
Sequence of Integrin alpha-IIb/beta-3 (P08514 891-1039 limits assumed): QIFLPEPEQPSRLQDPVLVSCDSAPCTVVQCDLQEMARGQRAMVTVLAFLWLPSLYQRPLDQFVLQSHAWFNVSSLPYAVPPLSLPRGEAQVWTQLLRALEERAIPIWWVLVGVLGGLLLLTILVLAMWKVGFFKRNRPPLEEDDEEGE

As for `N=C(N)NCCC[C@H](NC(=O)[C@H](CC(=O)O)NC(=O)CNC(=O)[C@@H](N)CCCNC(=N)N)C(=O)NCC(=O)N[C@@H](CC(=O)O)C(=O)O` [(S)-2-[2-((S)-2-{(S)-2-[2-((S)-2-Amino-5-guanidino-pentanoylamino)-acetylamino]-3-carboxy-propionylamino}-5-guanidino-pentanoylamino)-acetylamino]-succinic acid] (H-RGDRGD-OH), the IC50 was > 100 µM. The molecule `CC[C@H]1NC(=O)c2cccc(c2)CNC(=O)[C@H](CC(=O)O)NC(=O)CNC(=O)[C@H](CCCN=C(N)N)N(C)C1=O` [DMP-728] (cyclo([NMeR]GD[3Amb][dAbu])) registered a concentration for half-maximal inhibition (IC50) of 0.02 µM. On to `N=C(N)NCCC[C@@H]1NC(=O)[C@H](CC(=O)O)NC(=O)CNC(=O)[C@H](CCCNC(=N)N)NC(=O)[C@H](CC(=O)O)NC(=O)CNC1=O` [[(2S,5R,11R,14S)-11-Carboxymethyl-5,14-bis-(3-guanidino-propyl)-3,6,9,12,15,18-hexaoxo-1,4,7,10,13,16hexaaza-cyclooctadec-2-yl]-acetic acid], for which the IC50 was > 100 µM.

With `N=C(N)NCCC[C@@H]1NC(=O)[C@H](CC(=O)O)NC(=O)CNC(=O)[C@H](CCCNC(=N)N)NC(=O)[C@@H](CC(=O)O)NC(=O)CNC1=O` [[(2S,5R,11S,14S)-11-Carboxymethyl-5,14-bis-(3-guanidino-propyl)-3,6,9,12,15,18-hexaoxo-1,4,7,10,13,16hexaaza-cyclooctadec-2-yl]-acetic acid], the IC50 is > 100 µM.

The values are drawn from BindingDB's records for doi:10.1021/jm960276a (Texas A&M University, 1996).
